Source: ChEMBL document CHEMBL3872207, “Aromatic heterocyclic esters of podophyllotoxin exert anti-MDR activity in human leukemia K562/ADR cells via ROS/MAPK signaling pathways” (Eur J Med Chem, 2016)
Activity calls are given as the source filed them. The rule behind the calls is not given here.

What was measured:
K562/Adr [1] = experiment: Induction of ROS generation in human K562/ADR cells at 0.1 uM measured after 24 hrs by DCFH-DA probe based inverted fluorescence microscopy; assay type: functional, cell-based
[2] = molecular target: T1, c-Jun N-terminal kinase, JNK (Homo sapiens) (UniProt P45983+P53779+P45984); experiment: Induction of JNK phosphorylation in human K562/ADR cells assessed as ratio of phosphorylated JNK to beta-actin level at 0.1 uM measured after 48 hrs by Western blotting (reference value: 0.46); assay type: cell-based
K562/Adr [3] = experiment: Induction of ERK1/2 phosphorylation in human K562/ADR cells assessed as ratio of phosphorylated ERK1/2 to beta-actin level at 0.1 uM pretreated with MAPK inhibitor U0126 for 1 hr followed by compound addition after 48 hrs by Western blotting method (reference value: 0.22); assay type: cell-based
[4] = molecular target: T2, MAP kinase p38 (Homo sapiens) (UniProt O15264+Q15759+Q16539+P53778); experiment: Induction of P38 phosphorylation in human K562/ADR cells assessed as ratio of phosphorylated p38 to beta-actin level at 0.1 uM pretreated with MAPK inhibitor U0126 for 1 hr followed by compound addition after 48 hrs by Western blotting method (reference value: 0.25); assay type: cell-based
[5] = molecular target: T2, MAP kinase p38 (Homo sapiens); experiment: Induction of P38 phosphorylation in human K562/ADR cells assessed as ratio of phosphorylated p38 to beta-actin level at 0.1 uM pretreated with MAPK inhibitor SP600125 for 1 hr followed by compound addition after 48 hrs by Western blotting method (reference value: 0.25); assay type: cell-based
[6] = molecular target: T1, c-Jun N-terminal kinase, JNK (Homo sapiens); experiment: Induction of JNK phosphorylation in human K562/ADR cells assessed as ratio of phosphorylated JNK to beta-actin level at 0.1 uM pretreated with MAPK inhibitor SB203580 for 1 hr followed by compound addition after 48 hrs by Western blotting method (reference value: 0.46); assay type: cell-based
[7] = Downregulation of CDK1 expression in human K562/ADR cells assessed as ratio of CDK1 to beta-actin level at 0.1 uM pretreated with ROS scavenger NAC for 2 hrs followed by compound addition measured after 48 hrs by Western blot analysis (reference value: 0.53); assay type: functional, cell-based
[8] = Downregulation of CDK1 expression in human K562/ADR cells assessed as ratio of CDK1 to beta-actin level at 0.1 uM pretreated with MAPK inhibitor U0126 for 1 hr followed by compound addition measured after 48 hrs by Western blot analysis (reference value: 0.53); assay type: functional, cell-based
[9] = Downregulation of CDK2 expression in human K562/ADR cells assessed as ratio of CDK2 to beta-actin level at 0.1 uM pretreated with MAPK inhibitor SB203580 for 1 hr followed by compound addition measured after 48 hrs by Western blot analysis (reference value: 0.65); assay type: functional, cell-based
[10] = Downregulation of CyclinA expression in human K562/ADR cells assessed as ratio of CyclinA to beta-actin level at 0.1 uM pretreated with ROS scavenger NAC for 2 hrs followed by compound addition measured after 48 hrs by Western blot analysis (reference value: 0.64); assay type: functional, cell-based
[11] = Downregulation of CyclinA expression in human K562/ADR cells assessed as ratio of CyclinA to beta-actin level at 0.1 uM pretreated with MAPK inhibitor U0126 for 1 hr followed by compound addition measured after 48 hrs by Western blot analysis (reference value: 0.64); assay type: functional, cell-based
[12] = Downregulation of CyclinB1 expression in human K562/ADR cells assessed as ratio of CyclinB1 to beta-actin level at 0.1 uM pretreated with ROS scavenger NAC for 2 hrs followed by compound addition measured after 48 hrs by Western blot analysis (reference value: 0.77); assay type: functional, cell-based
[13] = Downregulation of CyclinB1 expression in human K562/ADR cells assessed as ratio of CyclinB1 to beta-actin level at 0.1 uM pretreated with MAPK inhibitor U0126 for 1 hr followed by compound addition measured after 48 hrs by Western blot analysis (reference value: 0.77); assay type: functional, cell-based
[14] = Downregulation of CyclinB1 expression in human K562/ADR cells assessed as ratio of CyclinB1 to beta-actin level at 0.1 uM pretreated with MAPK inhibitor SP600125 for 1 hr followed by compound addition measured after 48 hrs by Western blot analysis (reference value: 0.77); assay type: functional, cell-based
K562/Adr [15] = experiment: Induction of apoptosis in human K562/ADR cells assessed as viable cells at 0.1 uM after 48 hrs by Annexin V-APC/7-AAD staining based flow cytometry (reference value: 95.31%); assay type: functional; details: read-out: Activity
K562/Adr [16] = experiment: Induction of apoptosis in human K562/ADR cells assessed as early apoptotic cells at 0.1 uM pretreated with MAPK inhibitor U0126 for 1 hr followed by compound addition after 48 hrs by Annexin V-APC/7-AAD staining based flow cytometry (reference value: 2.74%); assay type: functional; design: scale not given: the % may be the effect or the level left
K562/Adr [17] = experiment: Induction of apoptosis in human K562/ADR cells assessed as late apoptotic cells at 0.1 uM pretreated with MAPK inhibitor U0126 for 1 hr followed by compound addition after 48 hrs by Annexin V-APC/7-AAD staining based flow cytometry (reference value: 1.69%); assay type: functional; design: scale not given: the % may be the effect or the level left
K562/Adr [18] = experiment: Induction of apoptosis in human K562/ADR cells assessed as early apoptotic cells at 0.1 uM pretreated with MAPK inhibitor SP600125 for 1 hr followed by compound addition after 48 hrs by Annexin V-APC/7-AAD staining based flow cytometry (reference value: 2.74%); assay type: functional; design: scale not given: the % may be the effect or the level left
K562/Adr [19] = experiment: Induction of apoptosis in human K562/ADR cells assessed as ratio of cleaved caspase-9 to beta-actin level at 0.1 uM pretreated with MAPK inhibitor U0126 for 1 hr followed by compound addition measured after 48 hrs by Western blot analysis (reference value: 0.05); assay type: functional
K562/Adr [20] = experiment: Induction of apoptosis in human K562/ADR cells assessed as ratio of cleaved PARP to beta-actin level at 0.1 uM pretreated with MAPK inhibitor U0126 for 1 hr followed by compound addition measured after 48 hrs by Western blot analysis (reference value: 0.04); assay type: functional
K562/Adr [21] = experiment: Induction of apoptosis in human K562/ADR cells assessed as ratio of cleaved caspase-9 to beta-actin level at 0.1 uM pretreated with MAPK inhibitor SP600125 for 1 hr followed by compound addition measured after 48 hrs by Western blot analysis (reference value: 0.05); assay type: functional
K562/Adr [22] = experiment: Induction of apoptosis in human K562/ADR cells assessed as ratio of cleaved caspase-8 to beta-actin level at 0.1 uM pretreated with MAPK inhibitor SB203580 for 1 hr followed by compound addition measured after 48 hrs by Western blot analysis (reference value: 0.07); assay type: functional
K562/Adr [23] = experiment: Induction of apoptosis in human K562/ADR cells assessed as ratio of cleaved caspase-9 to beta-actin level at 0.1 uM pretreated with MAPK inhibitor SB203580 for 1 hr followed by compound addition measured after 48 hrs by Western blot analysis (reference value: 0.05); assay type: functional
K562/Adr [24] = experiment: Induction of apoptosis in human K562/ADR cells assessed as membrane blebbing at 0.1 uM measured after 24 hrs by Hoechst33342 staining-based inverted fluorescent microscopic analysis; assay type: functional, cell-based
[25] = Potency index, ratio of etoposide IC50 to compound IC50 for antiproliferative activity against human K562/ADR cells; assay type: functional

For `COc1cc([C@@H]2c3cc4c(cc3[C@H](OC(=O)c3ccco3)[C@H]3COC(=O)[C@H]23)OCO4)cc(OC)c1OC`, which Activity (K562/Adr [1]) is on record?
The Activity was “Active”.

And the Ratio [2]?
The Ratio was 0.83.

What about the Ratio (K562/Adr [3]) of the same compound?
Its Ratio is 0.01.

And the Ratio [4]?
The Ratio was 0.21.

And the Ratio [5]?
Its Ratio is 0.19.

And the Ratio [6]?
Its Ratio is 0.3.

And the Ratio [7]?
Its Ratio is 0.49.

And the Ratio [8]?
Its Ratio is 0.26.

And the Ratio [9]?
Its Ratio is 0.24.

What about the Ratio [10] of the same compound?
Its Ratio is 0.58.

And the Ratio [11]?
Its Ratio is 0.41.

What about the Ratio [12] of the same compound?
Its Ratio is 0.66.

What about the Ratio [13] of the same compound?
Its Ratio is 0.51.

What about the Ratio [14] of the same compound?
The Ratio was 0.25.

And the viability at 0.1 µM (K562/Adr [15])?
The viability at 0.1 µM was 46.1%.

And the Activity (K562/Adr [16])?
Its Activity is 8.73%.

And the Activity (K562/Adr [17])?
The Activity was 31.44%.

And the Activity (K562/Adr [18])?
The Activity was 7.8%.

And the Ratio (K562/Adr [19])?
The Ratio was 0.26.

And the Ratio (K562/Adr [20])?
The Ratio was 0.43.

What about the Ratio (K562/Adr [21]) of the same compound?
Its Ratio is 0.47.

What about the Ratio (K562/Adr [22]) of the same compound?
The Ratio was 0.51.

What about the Ratio (K562/Adr [23]) of the same compound?
The Ratio was 0.44.

And the Activity (K562/Adr [24])?
The Activity was “Active”.

What about the “Ratio IC50” value [25] of the same compound?
The value was 69.093.
